Experimental data from patent publication US20220056040A1, “NOVEL 3-(2-BROMO-4-ALKYNYL-6-ALKOXYPHENYL)-3-PYRROLIN-2-ONES AND THEIR USE AS HERBICIDES” (Bayer Aktiengesellschaft, priority 2019, published 2022).

Columns and labels:
Format in all cases: in vivo
Avena fatua = experiment: Pre-emergence herbicidal effect; details: 80 g/ha, visual score after 3 weeks vs untreated controls
Description: (§1) Seeds of monocotyledonous and dicotyledonous weed plants and crop plants are laid out in sandy loam soil in wood-fiber pots and covered with soil. The compounds of the invention, formulated in the form of wettable powders (WP) or as emulsion concentrates (EC), are then applied to the surface of the covering soil as aqueous suspension or emulsion at a water application rate equating to 600 to 800 L/ha with addition of 0.2% wetting agent. After the treatment, the pots are placed in a greenhouse and kept under good growth conditions for the trial plants. The damage to the test plants is scored visually after a test period of 3 weeks by comparison with untreated controls (herbicidal activity in percent (%): 100% activity=the plants have died, 0% activity=like control plants).

Setaria viridis [1] = experiment: Pre-emergence herbicidal effect; details: 80 g/ha, visual score after 3 weeks vs untreated controls
Description: as §1

Lolium rigidum [2] = experiment: Pre-emergence herbicidal effect; details: 80 g/ha, visual score after 3 weeks vs untreated controls
Description: as §1

Echinochloa crus-galli [3] = experiment: Pre-emergence herbicidal effect; details: 80 g/ha, visual score after 3 weeks vs untreated controls
Description: as §1

Digitaria sanguinalis [4] = experiment: Pre-emergence herbicidal effect; details: 80 g/ha, visual score after 3 weeks vs untreated controls
Description: as §1

Alopecurus myosuroides [5] = experiment: Pre-emergence herbicidal effect; details: 80 g/ha, visual score after 3 weeks vs untreated controls
Description: as §1

Hordeum murinum = experiment: Post-emergence herbicidal effect; details: 80 g/ha, post-emergence at one-leaf stage, visual score after about 3 weeks
Experimental: (§2) Seeds of monocotyledonous and dicotyledonous weed and crop plants are laid out in sandyloam soil in wood-fiber pots, covered with soil and cultivated in a greenhouse under good growth conditions. 2 to 3 weeks after sowing, the test plants are treated at the one-leaf stage. The compounds of the invention, formulated in the form of wettable powders (WP) or as emulsion concentrates (EC), are then sprayed onto the green parts of the plants as aqueous suspension or emulsion at a water application rate equating to 600 to 800 l/ha with addition of 0.2% wetting agent. After the test plants have been left to stand in the greenhouse under optimal growth conditions for about 3 weeks, the action of the preparations is assessed visually in comparison to untreated controls (herbicidal action in percent (%): 100% activity=the plants have died, 0% activity=like control plants).

Setaria viridis [6] = experiment: Post-emergence herbicidal effect; details: 80 g/ha, post-emergence at one-leaf stage, visual score after about 3 weeks
Experimental: as §2

Lolium rigidum [7] = experiment: Post-emergence herbicidal effect; details: 80 g/ha, post-emergence at one-leaf stage, visual score after about 3 weeks
Experimental: as §2

Echinochloa crus-galli [8] = experiment: Post-emergence herbicidal effect; details: 80 g/ha, post-emergence at one-leaf stage, visual score after about 3 weeks
Experimental: as §2

Digitaria sanguinalis [9] = experiment: Post-emergence herbicidal effect; details: 80 g/ha, post-emergence at one-leaf stage, visual score after about 3 weeks
Experimental: as §2

Alopecurus myosuroides [10] = experiment: Post-emergence herbicidal effect; details: 80 g/ha, post-emergence at one-leaf stage, visual score after about 3 weeks
Experimental: as §2

C=CCOC1CCC2(CC1)NC(=O)C(c1c(Br)cc(C#CC)cc1OC)=C2OC(=O)C(C)C (stereo not drawn) [Example 1.3.04]
Pre-emergence action AVEFA (herbicidal activity in percent) (Avena fatua): 90% | Pre-emergence action SETVI (herbicidal activity in percent) (Setaria viridis [1]): 100% | Pre-emergence action LOLRI (herbicidal activity in percent) (Lolium rigidum [2]): 100% | Pre-emergence action ECHCG (herbicidal activity in percent) (Echinochloa crus-galli [3]): 100% | Pre-emergence action DIGSA (herbicidal activity in percent) (Digitaria sanguinalis [4]): 100% | Pre-emergence action ALOMY (herbicidal activity in percent) (Alopecurus myosuroides [5]): 90% | Post-emergence action against HORMU (herbicidal action in percent) (Hordeum murinum): 100% | Post-emergence action against SETVI (herbicidal action in percent) (Setaria viridis [6]): 100% | Post-emergence action against LOLRI (herbicidal action in percent) (Lolium rigidum [7]): 100% | Post-emergence action against ECHCG (herbicidal action in percent) (Echinochloa crus-galli [8]): 100% | Post-emergence action against DIGSA (herbicidal action in percent) (Digitaria sanguinalis [9]): 100% | Post-emergence action against ALOMY (herbicidal action in percent) (Alopecurus myosuroides [10]): 90%

CC#Cc1cc(Br)c(C2=C(O)C3(CCC4(CC3)OCCO4)NC2=O)c(OC)c1 [Example 1.2.03]
Pre-emergence action AVEFA (herbicidal activity in percent) (Avena fatua): 100% | Pre-emergence action SETVI (herbicidal activity in percent) (Setaria viridis [1]): 100% | Pre-emergence action LOLRI (herbicidal activity in percent) (Lolium rigidum [2]): 100% | Pre-emergence action ECHCG (herbicidal activity in percent) (Echinochloa crus-galli [3]): 100% | Pre-emergence action DIGSA (herbicidal activity in percent) (Digitaria sanguinalis [4]): 100% | Pre-emergence action ALOMY (herbicidal activity in percent) (Alopecurus myosuroides [5]): 100% | Post-emergence action against HORMU (herbicidal action in percent) (Hordeum murinum): 100% | Post-emergence action against SETVI (herbicidal action in percent) (Setaria viridis [6]): 100% | Post-emergence action against LOLRI (herbicidal action in percent) (Lolium rigidum [7]): 100% | Post-emergence action against ECHCG (herbicidal action in percent) (Echinochloa crus-galli [8]): 100% | Post-emergence action against DIGSA (herbicidal action in percent) (Digitaria sanguinalis [9]): 100% | Post-emergence action against ALOMY (herbicidal action in percent) (Alopecurus myosuroides [10]): 90%

C=CCOC1CCC2(CC1)NC(=O)C(c1c(Br)cc(C#CC)cc1OC)=C2O (stereo not drawn) [Example 1.3.01]
Pre-emergence action AVEFA (herbicidal activity in percent) (Avena fatua): 100% | Pre-emergence action SETVI (herbicidal activity in percent) (Setaria viridis [1]): 100% | Pre-emergence action LOLRI (herbicidal activity in percent) (Lolium rigidum [2]): 100% | Pre-emergence action ECHCG (herbicidal activity in percent) (Echinochloa crus-galli [3]): 90% | Pre-emergence action DIGSA (herbicidal activity in percent) (Digitaria sanguinalis [4]): 100% | Pre-emergence action ALOMY (herbicidal activity in percent) (Alopecurus myosuroides [5]): 100% | Post-emergence action against HORMU (herbicidal action in percent) (Hordeum murinum): 100% | Post-emergence action against SETVI (herbicidal action in percent) (Setaria viridis [6]): 100% | Post-emergence action against LOLRI (herbicidal action in percent) (Lolium rigidum [7]): 100% | Post-emergence action against ECHCG (herbicidal action in percent) (Echinochloa crus-galli [8]): 100% | Post-emergence action against DIGSA (herbicidal action in percent) (Digitaria sanguinalis [9]): 100% | Post-emergence action against ALOMY (herbicidal action in percent) (Alopecurus myosuroides [10]): 100%
